Assay results from patent US11903914B2, “Applications for sulindac in preparing anti-lung cancer products” (SHANGHAI JIAO TONG UNIVERSITY, priority 2015, dated 2024).

Legend:
Assay type in all cases: cell-based
[1] = system: NCI-H720 lung cancer cells; assay: CELLTITER-GLO luminescent cell viability assay, NCI-H720 96-well drug screening plate; conditions: 72 hours
Procedure: (§1) In example 1, CELLTITER-GLO was used to test sulindac against lung cancer
(§2) 1. Cell Plating • a) The complete medium required for each cell was prepared. • b) Before beginning the experiment, the name of the drug screened for the cells marked on the 100 mm petri dish was confirmed as well as information such as the passage time and number of passages to ensure the experiment was error-free. • c) Refer to steps d) through i) for procedures for adherent cells; refer to steps j) through l) for procedures for suspension cells. • d) When using aseptic technique, a vacuum pump was used to draw the cell culture medium. • e) 2 ml of a sterile PBS solution was used to rinse cell surfaces, and a vacuum pump was used to aspirate the PBS waste. • f) A 1 ml 0.25% (w/v) Trypsin-0.038% (w/v) EDTA solution was gently added to the petri dish for cell digestion, and after gently mixing several times, the solution covered the cell surfaces. […]

SW900 lung cancer cells = assay: CELLTITER-GLO luminescent cell viability assay, SW900 96-well drug screening plate; conditions: Homo sapiens, 72 hours
Procedure: as §1, §2

[2] = system: LOVO (ATCC CCL-229) lung cancer cells; assay: CELLTITER-GLO luminescent cell viability assay, LOVO cells (same method); conditions: Homo sapiens
Procedure: as §2

Compound: CC1=C(CC(=O)O)c2cc(F)ccc2/C1=C\c1ccc([S+](C)[O-])cc1 (stereo not shown) [sulindac]
- IC50 ([1]; CellTiter-Glo): 42.7 µM
- EC50 ([1]; FIG. 2 curve fit): 38.6 µM
- IC50 (SW900 lung cancer cells): 50.3 µM
- IC50 [2]: 100 µM
